Measured values as given in ChEMBL document CHEMBL1157247, “Bioactive natural and semisynthetic latrunculins” (2006).
≈ marks a conversion by molar mass, not a printed value. Calls of active or inactive are those of the source. No cut-off for these calls is given here.

How the values were obtained:
[1] = tested on: Candida albicans; assay: Antifungal activity against Candida albicans ATCC 10231 by modified microtiter plate assay; type: functional
[2] = tested on: Saccharomyces cerevisiae; assay: Antifungal activity against Saccharomyces cerevisiae by modified microtiter plate assay; type: functional
[3] = tested on: Bacillus cereus; assay: Antibacterial activity against Bacillus cereus by modified microtiter plate assay; type: functional
[4] = tested on: Staphylococcus aureus; assay: Antibacterial activity against Staphylococcus aureus ATCC 6535 by modified microtiter plate assay; type: functional
[5] = organism: Mus musculus; assay: Antiproliferative activity against mouse B16B15b cells at 1 uM after 18 hrs by alamar blue assay relative to control; type: functional, cell-based
[6] = organism: Gallus gallus; assay: Antiangiogenic activity in fertilized white leghorn chicken eggs at 57 uM/disk by CAM assay; type: functional; settings: Egg
[7] = organism: Gallus gallus; assay: Antiangiogenic activity in fertilized white leghorn chicken eggs at 12 uM/disk by CAM assay; type: functional; settings: Egg
[8] = organism: Mus musculus; assay: Inhibition of mouse B16B15b cell migration at 1 uM by Boyden's camber assay; type: functional
[9] = organism: Mus musculus; assay: Inhibition of mouse B16B15b cell migration assessed as wound closure rate at 1 uM after 14 hrs by wound healing assay relative to control; type: functional

Row | Compound | MIC [1] [µM] | MIC [2] [µM] | Activity [5] | other results
1 | C/C1=C/C(=O)O[C@@H]2CC(CC[C@H](C)/C=C\C=C\CC1)O[C@@](O)([C@H]1CSC(=O)N1)C2 | 2.5 (≈ 1.05 µg/mL) | 2.5 (≈ 1.05 µg/mL) |  | 
2 | CC(=O)N1C(=O)SC[C@H]1C(=O)/C=C/C[C@H]1CC[C@H](C)/C=C\CC/C(C)=C\C(=O)O1 | 2.5 (≈ 1.05 µg/mL) | 2.5 (≈ 1.05 µg/mL) | Active | MIC [3]: 17.8 µM (≈ 7.47 µg/mL); MIC [4]: 17.8 µM (≈ 7.47 µg/mL)
3 | COc1cc(/C=C/C(=O)CC(=O)/C=C/c2ccc(O)c(OC)c2)ccc1O |  |  |  | Activity [6]: Active
4 | CO[C@]1([C@@H]2CSC(=O)N2)C[C@H]2C[C@@H](CC[C@H](C)/C=C\CC/C(C)=C\C(=O)O2)O1 [15-METHOXYLATRUNCULIN B] | 2.5 (≈ 1.02 µg/mL) | 2.5 (≈ 1.02 µg/mL) |  | Activity [7]: Active; Activity [8]: Active
5 | CCCCO[C@]1([C@@H]2CSC(=O)N2)C[C@H]2C[C@@H](CC[C@H](C)/C=C\CC/C(C)=C\C(=O)O2)O1 [15-O-BUTYLLATRUNCULIN B] | 2.5 (≈ 1.13 µg/mL) | 2.5 (≈ 1.13 µg/mL) | Active | 
6 | CCCCCCCCO[C@]1([C@@H]2CSC(=O)N2)C[C@H]2C[C@@H](CC[C@H](C)/C=C\CC/C(C)=C\C(=O)O2)O1 [15-O-OCTYLLATRUNCULIN B] | 2.5 (≈ 1.27 µg/mL) | 2.5 (≈ 1.27 µg/mL) | Active | MIC [3]: 14.7 µM (≈ 7.46 µg/mL); MIC [4]: 14.7 µM (≈ 7.46 µg/mL)
7 | Clc1ccccc1C(c1ccccc1)(c1ccccc1)n1ccnc1 [CLOTRIMAZOLE] | 21.7 (≈ 7.48 µg/mL) | 21.7 (≈ 7.48 µg/mL) |  | 
8 | C/C1=C/C(=O)O[C@@H]2C[C@@H](CC[C@H](C)/C=C\CC1)O[C@@](O)([C@@H]1CSC(=O)N1)C2 [LATRUNCULIN B] | 2.5 (≈ 0.989 µg/mL) | 2.5 (≈ 0.989 µg/mL) | Active | Activity [9]: Active
9 | CC(=O)N1C(=O)SC[C@H]1[C@@]1(O)C[C@H]2C[C@@H](CC[C@H](C)/C=C\CC/C(C)=C\C(=O)O2)O1 [N-ACETYLLATRUNCULIN B] | 2.5 (≈ 1.09 µg/mL) | 2.5 (≈ 1.09 µg/mL) |  | Activity [9]: Active
10 | C/C1=C/C(=O)O[C@@H]2C[C@@H](CC[C@H](C)/C=C\CC1)O[C@@](O)([C@@H]1CSC(=O)N1CO)C2 [N-HYDROXYMETHYLLATRUNCULIN B] | 2.5 (≈ 1.06 µg/mL) | 2.5 (≈ 1.06 µg/mL) |  | Activity [8]: Active
11 | CC1(C)S[C@@H]2[C@H](NC(=O)Cc3ccccc3)C(=O)N2[C@H]1C(=O)O [PENICILLIN G] |  |  |  | MIC [3]: 22.4 µM (≈ 7.49 µg/mL); MIC [4]: 22.4 µM (≈ 7.49 µg/mL)
